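Interpolation was linear, between the two tested concentrations surrounding the appropriate level; five concentrations were tested over 48 hours in 96-well plates. GI50 marks 50% less growth. TGI: total growth inhibition.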

Test in all cases: growth of human tumour cells (NCI), 48 h
The subject of assay [1] is T-47D breast.
In assay [2] the test system is SK-MEL-28 melanoma.
The test system of assay [3] is SF-268 CNS.
Assay [4] deals with OVCAR-4 ovarian.
The test system of assay [5] is A498 renal.
In assay [6] the test system is EKVX NSCLC.
Assay [7] has as its system MOLT-4 leukemia.
The test system of assay [8] is NCI-H522 lung.
For assay [9], the system named is K-562 leukemia.
The subject of assay [10] is HL-60(TB) leukemia.

As to `CCOC(=O)[C@@H](C)C[C@H](Cc1ccccc1)NC(=O)c1csc([C@@H](C[C@H](C(C)C)N(C)C(=O)[C@@H](NC(=O)[C@H]2CCCCN2C)C(C)(C)CC)OC(C)=O)n1`, the GI50 is under 0.00167 µM in assay [1]; 1.2 µM in assay [2]; 0.00278 µM in [3]; 0.0146 µM in [4]; under 0.00167 µM in assay [5]; 0.00232 µM in assay [6]. Also, the GI50 in [7] was 0.00338 µM; in [8] it was under 0.00167 µM; in [9], under 0.00167 µM; in assay [10], under 0.00167 µM. Moreover, the TGI in assay [1] was over 16.7 µM; in assay [2], over 16.7 µM; in [3] it was over 12.8 µM; in [4], over 16.7 µM; in assay [5] it was 0.0114 µM; in [6] it was over 16.7 µM. Also, the TGI in [7] is over 13.1 µM; in [8] it was 0.0397 µM; in assay [9], over 16.7 µM; in assay [10], 0.0034 µM.

Regarding `COc1cc(/C=C2\C(=O)N(Cc3ccc(Cl)cc3)c3ccccc32)cc(OC)c1OC`, the GI50 in [1] is 2.16 µM; in [2], 1.53 µM; in [3], 2.76 µM; in assay [4], 4.35 µM; in [5] it was 1.54 µM; in [6] it was 4.15 µM. Besides, the GI50 in [7] is 2.2 µM; in assay [8], 2.2 µM; in [9], 2.78 µM; in [10] it was 1.94 µM. For the same compound, the TGI is 7.72 µM in assay [1]; 3.07 µM in assay [2]; 13.7 µM in assay [3]; over 49.6 µM in [4]; 7.97 µM in assay [5]; 34.6 µM in assay [6]. The TGI in [7] came to 5.97 µM; in assay [8], 5.93 µM; in assay [9], 16.4 µM; in assay [10], 5.44 µM.

As for `O=C1NC(=S)S/C1=C\c1cn(-c2ccccc2)nc1-c1ccccc1`, the GI50 in [1] is 4.59 µM; in assay [2], 9.22 µM; in [3], 17.2 µM; in [4], 8.14 µM; in assay [5] it was 2.99 µM; in assay [6], 3.03 µM. Moreover, the GI50 in assay [7] was 14.8 µM; in [8], 2.96 µM; in assay [9] it was 7.54 µM; in assay [10], 4.83 µM. Also, the TGI was 32.6 µM in [1]; over 100 µM in assay [2]; over 100 µM in [3]; over 100 µM in assay [4]; 18.2 µM in assay [5]; 23.6 µM in assay [6]. Also, the TGI in assay [7] is over 100 µM; in assay [8], 55.1 µM; in [9], over 100 µM; in assay [10], 59.8 µM.

For `CCCCN(CCCC)C(=O)[C@H](CC)[C@@H]1CC[C@@H](C)[C@@H]([C@H](C)[C@@H](O)[C@@H](C)C(=O)[C@H](CC)C2O[C@]3(C=C[C@@H](O)[C@]4(CC[C@@](C)([C@H]5CC[C@](O)(CC)[C@H](C)O5)O4)O3)[C@H](C)C[C@@H]2C)O1` (stereo not given in full), the GI50 is 2.34 µM in [1]; 4.21 µM in assay [2]; 3.17 µM in assay [3]; 2.85 µM in assay [4]; 1.99 µM in assay [5]; 2.32 µM in [6]. Moreover, the GI50 in assay [7] was 2.68 µM; in [8], 2.08 µM; in assay [9], 2.66 µM; in assay [10], 2.35 µM. Further, the TGI was 63.8 µM in assay [1]; 81.1 µM in assay [2]; over 100 µM in assay [3]; 36 µM in assay [4]; 6.24 µM in assay [5]; 8.8 µM in assay [6]. Besides, the TGI in assay [7] was found to be 8.31 µM; in [8], 5.44 µM; in assay [9] it was 18.4 µM; in [10], 5.7 µM.

The values are drawn from PubChem BioAssay (NCI).
